How the values were obtained:
endothelial cells = assay: effect of endothelial growth factors on calcium entrance into single endothelial cells; format: cell-based
[1] = tested on: endothelium proliferation; assay: endothelium proliferation; format: cell-based
solid tumor cells = details: disclosed in EP 1 423 131; cited from earlier work
[2] = tested on: VEGF-induced angiogenesis in Matrigel plugs; assay: murine model of angiogenesis induced by subcutaneous implant of Matrigel containing VEGF; format: in vivo, mouse; details: for reduction in angiogenesis (morphometric analysis, percentage of area covered by vessels): VEGF 40 ng/ml in Matrigel, plugs removed after 7 days, vs VEGF alone
Experimental: The effect of calcium trifluoroacetate in angiogenesis was evidenced in a murine model of angiogenesis induced by a subcutaneous implant of Matrigel. Matrigel is liquid at 4° C. and solid at 37° C., so that a pro-angiogenetic stimulus can be mixed with Matrigel and inoculated. In this protocol, the selected angiogenetic factor was […], added to the Matrigel together with 16 U/ml heparin, as described in literature (Bussolati B, Altered angiogenesis and survival in human tumor-derived endothelial cells. FASEB J. 2003; Bussolati B, Vascular endothelial growth factor receptor-1 modulates vascular endothelial growth factor-mediated angiogenesis via nitric oxide. Am J Pathol. 2001).
Calcium trifluoroacetate was administered intraperitoneally 30 minutes before Matrigel, then on alternate days (day 2, 4, 6), at a dose of 2 or 4 μg/mouse (0.2 mg/Kg). After 7 days, the animals were killed and the Matrigel plugs were removed for histological examination. Angiogenesis was evaluated by computer assisted morphometric analysis of the percentage of area covered by vessels.
This strong antiangiogenic effect could already be observed macroscopically and confirmed histologically.

tumor growth = details: disclosed in EP 1 423 131; cited from earlier work

O=C([O-])C(F)(F)F.O=C([O-])C(F)(F)F.[Ca+2] [calcium trifluoroacetate]
effect of endothelial growth factors on calcium entrance into single endothelial cells (endothelial cells): able to block, at least partly
action on endothelium proliferation [1]: evident inhibitory action
in vitro cytotoxic activity on solid tumor cells (solid tumor cells): cytotoxic activity
reduction in angiogenesis (morphometric analysis, percentage of area covered by vessels) ([2]; 2 μg/mouse intraperitoneally on alternate days): above 40%
reduction in angiogenesis (morphometric analysis, percentage of area covered by vessels) ([2]; 4 μg/mouse intraperitoneally on alternate days): 80%
effect of VEGF on angiogenesis in Matrigel plugs (macroscopic and histological) ([2]; mice treated with calcium trifluoroacetate, VEGF 40 ng/ml): dramatically reduced
tumor growth in animal experimental models (tumor growth): inhibit tumor growth

Reference: patent US20070260088A1, “Calcium Trifluoroacetate for Preparing Antiangiogenetic Medicaments” (priority 2004, published 2007)
